Consider two compounds from patent publication US20200246308A1, “SYNERGISTIC COMBINATIONS OF UROLITHINS A AND B FOR IMPROVING COGNITIVE CAPACITY OR COGNITIVE FUNCTION” (Natreon, Inc., priority 2018, published 2020).

Assay [1] deals with scopolamine induced amnesic rat model. As to the kind of experiment: Y-maze test, scopolamine induced amnesic rat model (Example 9A). It is filed as in vivo, Male Wistar rats. The following applies: scopolamine 1 mg/kg i.p.; for Curiosity behavior (total arm entries), trial-1 and trial-2 / Spatial recognition memory (known vs novel arm entries %), trial-2: p.o. 7 days: B 50, A 50, B:A 10:50 and 50:50 mg/kg; for Curiosity behavior (total arm entries), trial-1 and trial-2: Shilajit 25 mg/kg b.i.d; for Coping behavior to novel environment (% time in novel arm), trial-2: p.o. 7 days: B 50, A 50, B:A 10:50 and 50:50, Shilajit 50 mg/kg. On the procedure: The experiment was conducted in accordance with the Principles of laboratory animal care. Male Wistar rats (200-250 g) were purchased from the Central Animal House, Institute of Medical Sciences, Banaras Hindu University (BHU), Varanasi, India. Experiments on animals were approved by the Institutional Animal Ethics Committee of BHU, Varanasi, India. The animals were housed in polypropylene cages under controlled environmental conditions of temperature of 25±1° C. and 45-55% relative humidity and a 12:12 h light/dark cycle. The experimental animals had free access to commercial rat feed and water ad libitum during the experiment. Animals were acclimatized for at least one week before using them for experiments and exposed only once to the experiment.
Rats were randomly allocated into eight study groups containing six in each group (n=6), as follows:
Drug solution was freshly prepared in 0.3% CMC and administered by oral gavage once a day, for a period of 7 days. Briefly, the whole experiment was conducted for 8 days. Scopolamine (1 mg/kg), a muscarinic receptor antagonist, was dissolved in normal saline (0.9% NaCl) and administered intraperitoneally 1 h after drugs administration on seventh day.
Assessment of short term memory by Y maze test paradigm. The Y-maze test was performed essentially to assess spatial recognition memory, general exploratory behavior and anxiety-like behavior by following the standard protocol (Dellu, F., Mayo, W., Cherkaoui, J., Le Moal, M., Simon, H., “A two-trial memory task with automated recording: study in young and aged rats,” Brain Res. (1992) 588: 132-139). The Y-maze apparatus consists of three identical arms (50 cm long, 16 cm wide and 32 cm high) at 120° angles to each other, radiating out from a central point. Visual cues made from colored construction paper and laboratory glassware were placed around the perimeter of the maze and above the top of the black plexiglass sides and these cues were not repeated for each test to maintain novelty to the animals. The novel arm of the Y-maze was blocked and rats were allowed to visit the other two arms of the maze for 15 min. Four hours after the first phase, animals had free access to all three arms for 5 min. The number of entries in each arm was recorded for a 5-min period. The dependent variables such as the total number of entries in all arms (for the 5 min of trial 1 and 2), the % entries in known and novel arms for the 5 min period of trial 2 and the percentage of ratio of time spent in novel arm to time spent in all the arms and in the center of the apparatus during trial 2 were measured. The total number of entries in all arms (for the 5 min of trial 1 and 2) is indicative of general exploration attitude (curiosity) and the % entries in known versus novel arm for the 5 min period of trial 2 is considered as a measure of arm discrimination (spatial recognition memory). Coping strategy or behavior to novel environment was estimated by the percentage of time spent in novel arm to time spent in all arms and in the center of the apparatus during trial 2. The decrease in the coping behavior to novel environment was considered as increase in anxiety-like behavior. An arm entry was counted when the head and two front paws were inside the arm, and duration of an arm visit was ended when the head and two front paws were outside the arm again.

The target of assay [2] is T1, Human recombinant AChE (Homo sapiens, UniProt P22303).
T1 construct: purchased Sigma Aldrich
T1 sequence (P22303 32-614): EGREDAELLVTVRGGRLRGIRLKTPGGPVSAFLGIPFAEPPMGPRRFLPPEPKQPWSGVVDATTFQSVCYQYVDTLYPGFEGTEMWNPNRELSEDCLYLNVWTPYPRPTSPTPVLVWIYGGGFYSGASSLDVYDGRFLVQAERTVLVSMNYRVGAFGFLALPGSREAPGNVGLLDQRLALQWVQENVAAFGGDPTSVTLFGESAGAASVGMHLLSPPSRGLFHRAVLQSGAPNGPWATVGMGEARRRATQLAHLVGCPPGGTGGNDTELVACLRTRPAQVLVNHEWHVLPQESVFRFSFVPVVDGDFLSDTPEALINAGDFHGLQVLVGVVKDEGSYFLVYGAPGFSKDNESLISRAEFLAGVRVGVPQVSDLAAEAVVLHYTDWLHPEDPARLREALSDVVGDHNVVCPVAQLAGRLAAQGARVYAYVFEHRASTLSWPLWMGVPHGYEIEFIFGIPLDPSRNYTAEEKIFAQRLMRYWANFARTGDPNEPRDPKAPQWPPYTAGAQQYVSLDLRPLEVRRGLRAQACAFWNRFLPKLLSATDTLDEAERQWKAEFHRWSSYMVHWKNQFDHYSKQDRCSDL
Put plainly: In-vitro human recombinant AChE inhibition assay, Amplex Red kit method. The following applies: Table 11. It is filed as biochemical.
Experimental: In-vitro human recombinant AChE inhibition assay by Amplex Red kit method: The anticholinesterase activity of experimental drugs was measured by using Amplex red assay kit (Molecular Probes, Inc., USA). Fluorescence assay used for the screen of Human AChE activity in the presence of each experimental drug from a commercially available kit (Amplex Red, Invitrogen, Thermo Fisher Scientific, Waltham, Mass.). Acetylcholine, the product of AChE catalysis, was converted to a fluorescent called resorufin by the addition of a series of kit enzymes, including Choline oxidase (CO), horseradish peroxidase (HRP), and the fluorogenic substrate Amplex Red. As the fluorescent molecule resorufin is dependent on acetylcholine production and acetylcholine production is the product of AChE catalysis, the rate of change in fluorescence is a measurement of AChE activity. […] The following procedure is designed for use with a fluorescence multi-well plate scanner. […]
Positive control wells, representing 100% Human recombinant AChE activity (0% human-AChE inhibition), contained, Acetylcholine, and Amplex Red solution. […] Fluorescence measurements were taken at baseline (immediately after substrate was added to each well), and after a 60-minute incubation at 37° C. The fluorescence micro-plate reader was measured using excitation in the range of 530-560 nm and emission detected at 590 nm. […]

Assay [3] has as its target T2, acetylcholinesterase activity in HIP homogenate (Rattus norvegicus, UniProt P37136).
T2 construct: The acetylcholinesterase activity in brain tissues was measured using Amplex red assay kit; from tissue; host or cells: rat hippocampus (brain tissue homogenate supernatant)
T2 sequence (P37136 32-614): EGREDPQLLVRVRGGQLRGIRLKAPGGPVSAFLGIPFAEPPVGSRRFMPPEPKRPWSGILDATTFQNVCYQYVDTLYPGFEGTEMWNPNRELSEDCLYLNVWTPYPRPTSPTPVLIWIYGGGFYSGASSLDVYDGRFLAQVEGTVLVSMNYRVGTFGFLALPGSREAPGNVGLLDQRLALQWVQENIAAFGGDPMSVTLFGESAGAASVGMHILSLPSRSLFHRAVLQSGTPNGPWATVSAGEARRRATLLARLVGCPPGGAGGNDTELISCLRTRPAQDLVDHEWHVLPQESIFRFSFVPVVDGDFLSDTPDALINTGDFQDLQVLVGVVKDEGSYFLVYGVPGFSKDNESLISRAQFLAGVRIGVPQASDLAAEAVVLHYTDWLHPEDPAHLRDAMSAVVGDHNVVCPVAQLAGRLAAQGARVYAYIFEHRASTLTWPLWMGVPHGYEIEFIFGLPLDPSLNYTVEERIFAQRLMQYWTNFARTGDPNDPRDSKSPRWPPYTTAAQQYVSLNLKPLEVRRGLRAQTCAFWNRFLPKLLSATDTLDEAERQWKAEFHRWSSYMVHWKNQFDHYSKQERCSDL
As to the kind of experiment: Acetylcholinesterase activity in hippocampal tissue, Amplex Red kit (Example 9C). It counts as in vivo, Male Wistar rats. The conditions noted are these: p.o. 7 days: B 50, A 50, Donepezil 3, B:A 10:50 and 50:50 mg/kg, Shilajit 25 mg/kg b.i.d.

Assay [4] concerns the target T3, recombinant human Acetylcholinesterase-induced β-Amyloid (Aβ40) Aggregation (Homo sapiens, UniProt P22303).
T3 construct: purchased Sigma Aldrich
As to the kind of experiment: Inhibition of human recombinant AChE-induced β-amyloid peptide aggregation, ThT method. It is filed as biochemical. The conditions noted are these: test compounds 50 μM, B:A in μM, 48 h. On the procedure: The Aβ1-40 (10 μM and 30 μM) was incubated alone and independently with different concentrations of test compounds in the ratios shown in Tables 6 and 7, respectively.
2 μL of different concentrations of Aβ40 (10 and 30 μM) was incubated with 16 μL of AChE in the presence of different ratio of test compounds to obtain final concentrations of 30 or 10 μM Aβ40, […], 10, 20, 50 μM test compounds and 2 μL assay buffer ([…]). The mixture was incubated at room temperature for 24 or 48 hr in dark (Time period may be changed according to experiment).
Fluorescence intensities were obtained for Aβ40 aggregation in the presence of inhibitors, in the absence of inhibitors and the blanks or solvent control. After incubation, 178 μL of 20 μM ThT was added.
The percentage inhibition of the AChE-induced Aβ1-40 aggregation was calculated as follows.
Chemical reagents and starting materials were employed as above.

The structures appear in SMILES notation. Entries after “also recorded” stand apart in the source; their conditions may differ.

T3 sequence (P22303 32-614): as the sequence (P22303 32-614) above

One may read the IC50 as the concentration that inhibits the measured activity by half. As for `O=c1oc2cc(O)ccc2c2ccc(O)cc12` [Urolithin A, 3,8-dihydroxy-dibenzo-alpha-pyrone], in assay [1], the “Curiosity behavior (total arm entries), trial-1 and trial-2” value was “attenuated the scopolamine induced decrease in curiosity behavior”; the “Spatial recognition memory (known vs novel arm entries %), trial-2” value is given as “significantly reversed the scopolamine induced failed the discrimination behavior but not similar as to the vehicle group”; the “Coping behavior to novel environment (% time in novel arm), trial-2” value is given as “attenuated the scopolamine-induced decrease in coping strategy to a novel environment but not similar to that vehicle group”. Moreover, in assay [2], the IC50 came out at 528.00 ± 70.71 µg/mL. Moreover, the “Scopolamine-induced increase in acetylcholinesterase activity in HIP homogenate” value in assay [3] (listed as 3,8-(OH)2-DBP (A)) is on record as “attenuated the scopolamine induced increase acetylcholinesterase activity; also recorded: less effective than 3-OH-DBP (B) 50 mg/kg”. Also, the “inhibition of Aβ40 aggregation” value in assay [4] (Aβ40 30 μM) was approximately 30%. The “inhibition of Aβ40 aggregation” value in assay [4] (amyloid beta 10 μM) is approximately 34%.

In the case of `O=c1oc2cc(O)ccc2c2ccccc12` [Urolithin B, 3-hydroxy-dibenzo-alpha-pyrone], in assay [1], the “Curiosity behavior (total arm entries), trial-1 and trial-2” value is on record as “attenuated the scopolamine induced decrease in curiosity behavior”; the “Spatial recognition memory (known vs novel arm entries %), trial-2” value is given as “significantly reversed the scopolamine induced failed the discrimination behavior but not similar as to the vehicle group”; the “Coping behavior to novel environment (% time in novel arm), trial-2” value is on record as “attenuated the scopolamine-induced decrease in coping strategy to a novel environment but not similar to that vehicle group”. The 50% inhibitory concentration (IC50) in assay [2] is 412.00 ± 28.28 µg/mL. Besides, the “Scopolamine-induced increase in acetylcholinesterase activity in HIP homogenate” value in assay [3] is “attenuated the scopolamine induced increase acetylcholinesterase activity”. In addition, in assay [4] (Aβ40 30 μM), the “inhibition of Aβ40 aggregation” value was approximately 43%. Also, the “inhibition of Aβ40 aggregation” value in assay [4] (amyloid beta 10 μM) was approximately 46%.
